In ChEMBL document CHEMBL1201862, “PubChem BioAssay data set” (2004):
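Values below derive from 48-hour exposures of cells grown in 96-well plates, with endpoints linearly interpolated between the two concentrations bracketing the appropriate inhibition level. Here, GI50 denotes the concentration required for 50% inhibition of growth.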 Activity calls are given as the source filed them. Rule as the data show it: active = GI50 up to about 1.1 µM and inactive = higher.

What was measured:
Experiment in all cases: NCI tumour cell line growth inhibition, 48 h
A549 = test system: A549
CAKI-1 = test system: CAKI-1
HCT-15 = test system: HCT-15
HT-29 = test system: HT-29
IGROV-1 = test system: IGROV-1
KM12 = test system: KM12
LOX IMVI = test system: LOX IMVI
M14 = test system: M14
MOLT-4 = test system: MOLT-4
NCI/ADR-RES = test system: NCI/ADR-RES
OVCAR-5 = test system: OVCAR-5
OVCAR-8 = test system: OVCAR-8
SF-268 = test system: SF-268
SF-295 = test system: SF-295
SK-MEL-28 = test system: SK-MEL-28
SK-MEL-2 = test system: SK-MEL-2
SNB-75 = test system: SNB-75
TK-10 = test system: TK-10
UACC-257 = test system: UACC-257
UO-31 = test system: UO-31

Row | Structure (SMILES) | GI50 (A549) | GI50 (CAKI-1) | GI50 (HCT-15) | GI50 (HT-29) | GI50 (IGROV-1) | GI50 (KM12) | GI50 (LOX IMVI) | GI50 (M14) | GI50 (MOLT-4) | GI50 (NCI/ADR-RES) | GI50 (OVCAR-5) | GI50 (OVCAR-8) | GI50 (SF-268) | GI50 (SF-295) | GI50 (SK-MEL-28) | GI50 (SK-MEL-2) | GI50 (SNB-75) | GI50 (TK-10) | GI50 (UACC-257) | GI50 (UO-31)
1 | NC(CCCCCCCCCCP(=O)(O)O)C(=O)O (centres undefined) | > 100 µM (inactive) | 4.23 µM (inactive) | > 100 µM | > 100 µM (inactive) | > 100 µM (inactive) | > 100 µM (inactive) | > 100 µM (inactive) | > 100 µM (inactive) | > 100 µM (inactive) | > 100 µM (inactive) | > 100 µM (inactive) | > 100 µM (inactive) | > 10 µM (inactive) | > 100 µM (inactive) | > 100 µM (inactive) | > 100 µM (inactive) | 7.73 µM (inactive) | > 100 µM (inactive) | > 100 µM (inactive) | > 100 µM (inactive)
2 | O=C(O)/C(Cc1ccnc2ccccc12)=N\O | > 100 µM (inactive) | > 100 µM (inactive) | > 100 µM | > 100 µM (inactive) | > 100 µM (inactive) | > 100 µM (inactive) | > 100 µM (inactive) | > 100 µM (inactive) | > 100 µM (inactive) | > 100 µM (inactive) | > 100 µM (inactive) | > 100 µM (inactive) | > 100 µM (inactive) | > 100 µM (inactive) | > 100 µM (inactive) | > 100 µM (inactive) | > 100 µM (inactive) | > 100 µM (inactive) | > 100 µM (inactive) | > 100 µM (inactive)
3 | OC1(c2ccccc2)CC2CCC(C1)N2CCc1ccccc1 (centres undefined) | 49.8 µM (inactive) | 53.2 µM (inactive) | 89.9 µM | 23.8 µM (inactive) | 86.3 µM (inactive) | 57.9 µM (inactive) | 54.7 µM (inactive) | 35.6 µM (inactive) | 29.7 µM (inactive) | > 100 µM (inactive) | 26.1 µM (inactive) | 92.9 µM (inactive) | > 100 µM (inactive) | 34.6 µM (inactive) | 68.4 µM (inactive) | > 100 µM (inactive) | > 100 µM (inactive) | > 100 µM (inactive) | 24.5 µM (inactive) | 28.1 µM (inactive)
4 | COC(=O)[C@@H]1C=C[C@H](NC(C)=O)C1 | – | > 100 µM (inactive) | > 100 µM | > 100 µM (inactive) | > 100 µM (inactive) | > 100 µM (inactive) | > 100 µM (inactive) | > 100 µM (inactive) | > 100 µM (inactive) | > 100 µM (inactive) | > 100 µM (inactive) | > 100 µM (inactive) | – | > 100 µM (inactive) | > 100 µM (inactive) | > 100 µM (inactive) | > 100 µM (inactive) | > 100 µM (inactive) | > 100 µM (inactive) | > 100 µM (inactive)
5 | COc1cc(/C=C2\N=C(c3ccccc3)N(c3ccc(C(=O)c4ccccc4)cc3N3C(=O)/C(=C/c4cc(OC)c(OC)c(OC)c4)N=C3c3ccccc3)C2=O)cc(OC)c1OC | 13.7 µM (inactive) | 22.2 µM (inactive) | 5.62 µM | 29.1 µM (inactive) | 15.7 µM (inactive) | 13.2 µM (inactive) | 14.3 µM (inactive) | 12.1 µM (inactive) | 4.97 µM (inactive) | 7.8 µM (inactive) | 30.8 µM (inactive) | 19.9 µM (inactive) | 20.3 µM (inactive) | 11.7 µM (inactive) | 18.7 µM (inactive) | 9.77 µM (inactive) | 7.36 µM (inactive) | 16.8 µM (inactive) | 15.2 µM (inactive) | 16 µM (inactive)
6 | COc1cccc2c1C(=O)c1c(O)c3c(c(O)c1C2=O)C[C@@](O)(C(=O)CO)C[C@@H]3OC1CC(N2CCOCC2)C(O)C(C)O1 (some centres undefined) | 0.00628 µM (active) | 0.00948 µM (active) | 0.00315 µM | 0.00628 µM (active) | 0.0131 µM (active) | 0.0246 µM (active) | 0.0025 µM (active) | 0.0324 µM (active) | 0.00333 µM (active) | 0.00252 µM (active) | 0.00275 µM (active) | 0.0025 µM (active) | 0.0239 µM (active) | 0.0025 µM (active) | 0.0027 µM (active) | 0.0025 µM (active) | 0.0025 µM (active) | 0.0485 µM (active) | 0.00267 µM (active) | 0.0025 µM (active)
7 | CCOC(=O)Cn1c(=O)c2cc(C)cc3c(Cl)nc4c(OC)c(OC)cc1c4c32 | > 100 µM (inactive) | > 100 µM (inactive) | > 100 µM | > 100 µM (inactive) | 71.8 µM (inactive) | > 100 µM (inactive) | > 100 µM (inactive) | > 100 µM (inactive) | > 100 µM (inactive) | > 100 µM (inactive) | > 100 µM (inactive) | > 100 µM (inactive) | 35.6 µM (inactive) | > 100 µM (inactive) | > 100 µM (inactive) | > 100 µM (inactive) | 30.8 µM (inactive) | > 100 µM (inactive) | > 100 µM (inactive) | > 100 µM (inactive)
8 | COc1nc2cccc(C(O)c3ccccc3)c2nc1-c1ccccc1 (centres undefined) | 4.88 µM (inactive) | 5.05 µM (inactive) | 4.43 µM | 5.18 µM (inactive) | 5.09 µM (inactive) | 6.04 µM (inactive) | 6.24 µM (inactive) | 4.39 µM (inactive) | 5.11 µM (inactive) | 3.85 µM (inactive) | 11 µM (inactive) | 8.22 µM (inactive) | 9.06 µM (inactive) | 2.08 µM (inactive) | 13.4 µM (inactive) | 9.95 µM (inactive) | 9.12 µM (inactive) | 22.3 µM (inactive) | 5.89 µM (inactive) | 8.39 µM (inactive)
9 | CC1=C(C)[C@@]2(C)O[C@@]2(C)O[C@@]2(C)O[C@@]12C | > 100 µM (inactive) | > 100 µM (inactive) | > 100 µM | > 100 µM (inactive) | – | > 100 µM (inactive) | > 100 µM (inactive) | > 100 µM (inactive) | – | > 100 µM (inactive) | > 100 µM (inactive) | > 100 µM (inactive) | > 100 µM (inactive) | > 100 µM (inactive) | > 100 µM (inactive) | > 100 µM (inactive) | > 100 µM (inactive) | > 100 µM (inactive) | > 100 µM (inactive) | > 100 µM (inactive)
10 | Cc1ccc2oc3c(ccc(=O)n3C)c(=O)c2c1 | > 100 µM (inactive) | > 100 µM (inactive) | > 100 µM | > 100 µM (inactive) | > 100 µM (inactive) | > 100 µM (inactive) | > 100 µM (inactive) | > 100 µM (inactive) | – | > 100 µM (inactive) | > 100 µM (inactive) | > 100 µM (inactive) | > 100 µM (inactive) | > 100 µM (inactive) | > 100 µM (inactive) | > 100 µM (inactive) | > 100 µM (inactive) | > 100 µM (inactive) | – | > 100 µM (inactive)
